Reference: paper PMC10967572, “Induction of Oxidative Stress and Ferroptosis in Triple-Negative Breast Cancer Cells by Niclosamide via Blockade of the Function and Expression of SLC38A5 and SLC7A11” (Antioxidants, 2024)

Key:
MB231 and TXBR100 cells [1] = assay: Lipid peroxidation (malondialdehyde) assay; format: cell-based, human; settings: niclosamide 2.5 and/or 5 μM, 24 h
Method: Control and niclosamide-treated cells were used for measurement of cellular glutathione levels as instructed in the manufacturer’s protocol (GSH-Glo assay, Promega, Madison, WI, USA). The levels of malondialdehyde were measured using lipid peroxidation kit [Lipid Peroxidation (MDA) Assay Kit (MAK085), Millipore-sigma, St. Louis, MO, USA].

MB231 xenograft tumors = assay: qRT-PCR and Western blot of xenograft tumor tissue; format: in vivo, mouse; settings: niclosamide 4 mg/kg daily i.p.
Method: Total RNA was extracted from cells using TRIzol Reagent (ThermoFisher Scientific, Waltham, MA, USA) and the RNA was reverse-transcribed using a high-capacity cDNA reverse transcription kit (ThermoFisher Scientific, Waltham, MA, USA) according to the manufacturer’s protocol. Quantitative RT-PCR was performed with Takara Taq Hot Start Version (TaKaRa Biotechnology, Shiga, Japan) or Power SYBR Green PCR master mix (Bio-Rad, Hercules, CA, USA). Primer sequences are shown in Supplemental Table S1. The relative mRNA expression was determined by the 2^−∆∆Ct method. Additionally, 18S was used as a housekeeping gene for normalization.
Cells and tumor tissues were lysed in Pierce™ RIPA buffer (ThermoFisher Scientific, Waltham, MA, USA) supplemented with Halt™ Protease and Phosphatase Inhibitor Cocktail (ThermoFisher Scientific, Waltham, MA, USA). Homogenates were centrifuged, and supernatants were used for protein measurement via Pierce™ BCA Protein Assay Kit (ThermoFisher Scientific, Waltham, MA, USA). […] Western blot samples were prepared in Laemmli sample buffer (Bio-Rad Laboratories, Hercules, CA, USA). They were loaded onto a SDS–PAGE gel and transferred onto a PVDF membrane (Bio-Rad Laboratories, Hercules, CA, USA). The membrane was blocked and antibodies diluted in 5% nonfat dry milk (Bio-Rad Laboratories, Hercules, CA, USA) or in 5% bovine serum albumin (Irvine Scientific, Santa Ana, CA, USA) were used. Protein bands were visualized using Pierce™ ECL Western Blotting Substrate (ThermoFisher Scientific, Waltham, MA, USA) and developed on the autoradiography film (Santa Cruz, Dallas, TX, USA). Primary antibodies were purchased either from Cell Signaling (Danvers, MA, USA) [anti-GPX4 (#52455), anti-FTH (#4393), anti-HSP60 (#12165), anti-phospho-p70S6K (#9205), anti-p70S6K (#2708)] or from Abcam (Waltham, MA, USA) [Nrf2 (#ab62352)]. Secondary antibody Horseradish peroxidase-conjugated goat anti-rabbit IgG (#1706515) was purchased from Bio-Rad Laboratories (Hercules, CA, USA). For quantification of protein levels by the densitometric analysis, the experiment was carried out in triplicate and the data were collected from the resultant three Western blots.
Female athymic nude mice (4-week-old) were purchased from Jackson Laboratories and housed under standard conditions. MDA-MB231 cells were injected into lower mammary fat pad (5 × 10^6 cells). All cells were suspended in serum-free media and Matrigel (1:1 ratio), with 100 µL of suspension being injected into each mouse. Mice were treated by daily intraperitoneal injection of niclosamide (4 mg/kg/day) and vehicle (dimethylsulfoxide) control. The treatment began when the tumor size was 100–150 mm^3. Tumor size was measured biweekly with a caliper, with tumor volume calculated using the formula (width^2 × length)/2. Tumors were allowed to grow for 7 weeks; mice were then euthanized via isoflurane […] and tumors harvested. The animal study protocol was approved by the Texas Tech University Health Sciences Center Institutional Animal Care and Use Committee (IACUC protocol number 18005) and the experiments were conducted in the same institution. RNA and protein were prepared from the tumor tissue for qRT-PCR and Western blotting.

MB231 and TXBR100 cells [2] = assay: Matrigel cell invasion assay; format: cell-based; settings: Homo sapiens, niclosamide 2.5 μM, 24 h, read-out: inhibition of cell invasion and migration
Method: The effect of niclosamide on cell invasion was monitored using Corning® BioCoat™ Matrigel® Invasion assay kit according to the manufacturer’s instructions. Briefly, cells were serum-starved and their invasion to the other side of the membrane was analyzed in the presence or absence of niclosamide for 24 h. At the end of this treatment, non-invaded cells on the top side of the membrane were removed by scrubbing. Cells which invaded the other side of the membrane were fixed with 100% methanol, stained with crystal violet and counted under an inverted microscope; images were also captured.

## O=C(Nc1ccc([N+](=O)[O-])cc1Cl)c1cc(Cl)ccc1O [niclosamide]
MB231 and TXBR100 cells [1]
  malondialdehyde levels (lipid peroxidation): increase
MB231 xenograft tumors; Western blot
  Nrf2 protein levels in tumors: markedly decreased
  ferritin heavy chain protein levels in tumors: decreased
MB231 xenograft tumors; qRT-PCR
  Nrf2 mRNA level in tumors: markedly decreased
  SLC7A11 mRNA level in tumors: markedly decreased
  SLC38A5 mRNA level in tumors: markedly decreased
MB231 and TXBR100 cells [2]
  inhibition at […]: > 75%
